Source: patent EP1270000A2, “Benzoic acid substituted benzopyrans for the treatment of atherosclerosis” (Pfizer Products Inc., priority 2001, dated 2003)

How the values were obtained:
CD11b = test: Immunohistochemical staining of macrophages (CD11b) in atherosclerotic lesions; assay type: in vivo, mice; conditions: 30 mg/kg/d orally for 35 days, mean ± SD, N=8/group
Method: (§1) Administration of Compound. Compound of formula I, preferably (3S, 4R)-7-(2-carboxy-5-trifluoromethylphenyl)-4-hydroxy-3-benzyl-3,4-dihydro-2H-1-benzopyran, was evaluated for its effects on lesion development in age-matched groups of mice (15 to 30 weeks of age at time of sacrifice) using a 35 day treatment protocol. Subgroups of mice were treated with (3S, 4R)-7-(2-carboxy-5-trifluoromethylphenyl)-4-hydroxy-3-benzyl-3,4-dihydro-2H-1-benzopyran for shorter times (7-14 days) for evaluation of acute changes in tissue gene expression as noted in the table and figure legends. In all study groups, the compound was administered by oral gavage once daily in a vehicle comprised of 0.6% Tween 80 + 0.25% methylcellulose in PBS. Mice received either vehicle alone, 30mg/kg/day, or 100mg/kg/day of compound of formula I.
Immunohistochemical Staining of Macrophages. Serial paraformaldehyde fixed, OCT embedded sections of aortic valves were immunostained for macrophages using rat monoclonal antibodies (IgG2b) against MOMA-2 (BioSource) and CD11b (Pharmingen). Endogenous biotin and peroxidase activity were blocked by incubating each section with an avidin/biotin solution (Vector Laboratories), and 0.3% H2O2 in 1% bovine serum, respectively. […] Results are expressed as the percent of the total cross-sectional vessel wall area (normal + diseased area/ section, excluding the lumen) stained with DAB. […]

C57E^-/- = test: Lesion analysis (Oil red O, aortic sinus and valve) in atherosclerotic mice; assay type: in vivo; conditions: 100 mg/kg orally 35 days, chow diet, mean ±SD
Excerpt: (§2) Mouse line derivation. Genetically modified apolipoprotein E-deficient (ApoE^-/-), low density lipoprotein (LDL) receptor-deficient (LDLr^-/-), and monocyte chemoattractant protein-1-deficient (MCP-1^-/-) mice used in the present study have been previously described and characterized [See Rutledge, B.J. et. al., J. Immunol., 1995;155:4838-4843; and Nakashima Y, et. al., Arterioscler. Thromb., 1994;14(1):133-140]. To obtain mice homozygous for both the apoE and MCP-1 (ScyA2) null alleles, male ApoE^-/- mice on a C57B/6 background (C57E^- ^/-) were mated with heterozygous female MCP-1^-/+ mice on a C57B/6 background. The resulting ApoE^-/- x MCP-1^-/+ progeny were identified by Southern blot analysis and inbred to produce ApoE^-/- x MCP-1^-/- (C57E^-/- x MCP-1 ^-/-) and control ApoE ^-/- x MCP-1^+/+ (C57E-/-) mice. ApoE^-/- mice on the mixed genetic background 1290la x C57B/6 (129E^-/-) were bred in-house and derived from brother and sister matings. All mice were weaned at 21 days, maintained on a 12 hour light/dark cycle and fed either a chow or a Western-type diet [See, Bourassa, P.K., et. al., Proc Natl Acad. Sci. USA, 1996;93:10022-10027].
as §1, with “In all study groups, the compound was administered by oral gavage once daily in a vehicle comprised of 0.6% Tween 80 + 0.25% methylcellulose in PBS. Mice received either vehicle alone, 30mg/kg/day, or 100mg/kg/day of compound of formula I.” left out
(§3) Lesion Analysis. […] Each section of the aortic valve was evaluated for Oil red O staining area by capturing images directly from a RGB camera attached to a Leitz Laborlux S (Leica) light microscope for display on a Trinitron RGB monitor. […] Results are expressed as the average lesion size per section or as the percent of the total cross sectional vessel wall stained with Oil red O. For each animal, the average lesion area of 12-16 sections was determined and data are expressed as lesion size or mean percent lesion area ±S.D.
Referring to Table 2, Apolipoprotein E-deficient mice on a mixed 129Io/B6 (129E^-/-) or a C57BI/6 background (C57E^-/-), mice homozygous low density lipoprotein receptor deficient mice LDLR^-/- mice were treated for 35 days orally with (3S, 4R)-7-(2-carboxy-5-trifluoromethylphenyl)-4-hydroxy-3-benzyl-2H-1-benzopyran) at doses indicated. […] The mean percent lesion area in 10 µ sections of the aortic sinus and valve region was calculated following oil red O staining, Values are reported as means ±SD. The term "ND" is defined as Not Determined. […]

MCP-1 ^-/- X ApoE^-/- = test: Lesion analysis (Oil red O, aortic sinus and valve) in MCP-1 deficient mice; assay type: in vivo; conditions: M, mean ±SD
Excerpt: as §2, §1
(§4) Lesion Analysis. To determine cross-sectional lesion area, hearts were perfusion-fixed in 4% paraformaldehyde, infiltrated with 30% gum sucrose for 24 hours at 4°C, and embedded in OCT compound and sectioned 10µm, -18°C, as previously described [See Borgeat P., et.al., J. Biol. Chem., 1979;254:2643-2646] and the sections were stained with Oil red O (Polyscientific, Bay Shore NY) and counterstained with Gill III hematoxylin (Sigma, St. Louis MO). Each section of the aortic valve was evaluated for Oil red O staining area by capturing images directly from a RGB camera attached to a Leitz Laborlux S (Leica) light microscope for display on a Trinitron RGB monitor. Image analysis was performed using ImagePro 3.1' software as described previously [See Bourassa, P.K., et. al., Proc Natl. Acad. Sci. USA, 1996;93:10022-10027]. Results are expressed as the average lesion size per section or as the percent of the total cross sectional vessel wall stained with Oil red O. For each animal, the average lesion area of 12-16 sections was determined and data are expressed as lesion size or mean percent lesion area ±S.D.
Referring to Table 4, mice homozygous for the null alleles of Monocyte chemoattractant protein-1 (MCP-1^-/-) and apolipoprotein E (ApoE^-/-) (MCP-1 ^-/- X ApoE^-/-) on a C57bl/6 background (C57E^-/-) mice were treated for 35 days orally with (3S, 4R)-7-(2-carboxy-5-trifluoromethylphenyl)-4-hydroxy-3-benzyl-2H-1-benzopyran) at doses indicated 0, 30 or 100mg/kg. The mean percent lesion area in 10 µ sections of the aortic sinus and valve region was calculated following oil red O staining, Values are reported as means ±SD. The term "ND" is defined as Not Determined. The term "TPC" is defined as Total Plasma Cholesterol. The term "TG" is defined as Triglycerides. The term "sinus" is defined as a region of the aortic valve; moving up from the base of the heart; which begins at the first appearance of the aortic valve cusps, dividing the lumen into three distinct regions. […]

129E^-/- = test: Lesion analysis (Oil red O, aortic sinus and valve) in atherosclerotic mice; assay type: in vivo; parameters: Lesion size: unit not given here; conditions: chow diet; for Sinus (% lesion) / Valve (%lesion): 129E^-/-, F, mean ±SD
Excerpt: as §2
as §1, with “Mice received either vehicle alone, 30mg/kg/day, or 100mg/kg/day of compound of formula I.” left out
as §4
Referring to Table 2, Apolipoprotein E-deficient mice on a mixed 129Io/B6 (129E^-/-) or a C57BI/6 background (C57E^-/-), mice homozygous low density lipoprotein receptor deficient mice LDLR^-/- mice were treated for 35 days orally with (3S, 4R)-7-(2-carboxy-5-trifluoromethylphenyl)-4-hydroxy-3-benzyl-2H-1-benzopyran) at doses indicated. LDLR^-/- was fed a Western diet; all other strains were maintained on chow diet. The mean percent lesion area in 10 µ sections of the aortic sinus and valve region was calculated following oil red O staining, Values are reported as means ±SD. The term "ND" is defined as Not Determined. The term "TPC" is defined as Total Plasma Cholesterol. The term "TG" is defined as Triglycerides. The term "sinus" is defined as a region of the aortic válve; moving up from the base of the heart; which begins at the first appearance of the aortic valve cusps, dividing the lumen into three distinct regions. In the sinus, the aortic wall is bulging and irregular. […]

LDLr^-/- = test: as above; assay type: in vivo; parameters: Lesion size: unit not given here
Excerpt: as §2
Administration of Compound. Compound of formula I, preferably (3S, 4R)-7-(2-carboxy-5-trifluoromethylphenyl)-4-hydroxy-3-benzyl-3,4-dihydro-2H-1-benzopyran, was evaluated for its effects on lesion development in age-matched groups of mice (15 to 30 weeks of age at time of sacrifice) using a 35 day treatment protocol. […]
as §3, with “±S.D. […]” for “±S.D.”

[1] = Body weight of treated mice; assay type: in vivo
Method: as §1, with “Mice received either vehicle alone, 30mg/kg/day, or 100mg/kg/day of compound of formula I.” left out

[2] = 15 wks, 30 mg/kg orally 35 days
[3] = 15 wks, 100 mg/kg orally 35 days
[4] = 30 wks, 30 mg/kg orally 35 days
[5] = 30 wks, 100 mg/kg orally 35 days
[6] = 15 wks, 50 mg/kg orally 35 days
[7] = 20 wks, 30 mg/kg orally 35 days
[8] = 24 wks, 100 mg/kg orally 35 days
[9] = LDLr^-/-, M, 18 wks, 30 mg/kg orally 35 days, Western diet, mean ±SD

O=C(O)c1ccc(C(F)(F)F)cc1-c1ccc2c(c1)OC[C@H](Cc1ccccc1)[C@H]2O [(3S, 4R)-7-(2-carboxy-5-trifluoromethylphenyl)-4-hydroxy-3-benzyl-3,4-dihydro-2H-1-benzopyran]
% CD11b (mean percent of the lesion staining positively for CD11b) (CD11b; female 129E^-/-, chow diet): 3.5±1.0 %
% CD11b (mean percent of the lesion staining positively for CD11b) (CD11b; male LDLr^-/-, Western-type diet): 3.5±2.5 %
Sinus (% lesion) (C57E^-/-; F, 22 wks): 38.8±3%
Valve (%lesion) (C57E^-/-; F, 22 wks): 39±2%
Sinus (% lesion) (C57E^-/-; M, 16 wks): 10.4±3 %
Valve (%lesion) (C57E^-/-; M, 16 wks): 7.8±2 %
Sinus (% lesion) (MCP-1 ^-/- X ApoE^-/-; [2]): 13.3±2%
Valve (%lesion) (MCP-1 ^-/- X ApoE^-/-; [2]): 12.8±2%
Sinus (% lesion) (MCP-1 ^-/- X ApoE^-/-; [3]): 9.8±1%
Valve (%lesion) (MCP-1 ^-/- X ApoE^-/-; [3]): 9.7±1%
Sinus (% lesion) (MCP-1 ^-/- X ApoE^-/-; [4]): 41.4±5%
Valve (%lesion) (MCP-1 ^-/- X ApoE^-/-; [4]): 54.2±7%
Sinus (% lesion) (MCP-1 ^-/- X ApoE^-/-; [5]): 43.1±5%
Valve (%lesion) (MCP-1 ^-/- X ApoE^-/-; [5]): 50.0±4%
Sinus (% lesion) (129E^-/-; [2]): 19.6±2%
Valve (%lesion) (129E^-/-; [2]): 21.6±2%
Sinus (% lesion) (129E^-/-; [6]): 14.7±2 %
Valve (%lesion) (129E^-/-; [6]): 16.3±2 %
Sinus (% lesion) (129E^-/-; [3]): 7.9±1 %
Valve (%lesion) (129E^-/-; [3]): 8.0±2 %
Sinus (% lesion) (129E^-/-; [7]): 24.4±3%
Valve (%lesion) (129E^-/-; [7]): 25.9±3 %
Sinus (% lesion) (129E^-/-; [8]): 30.0±1%
Valve (%lesion) (129E^-/-; [8]): 34.0±1%
Lesion size (129E^-/-; female 129E^-/-, 30 mg/kg/d orally for 35 days, mean ± SD, N=8/group): 10650±12133
Sinus (% lesion) (LDLr^-/-; [9]): 5.6±2 %
Valve (%lesion) (LDLr^-/-; [9]): 6.5±3 %
Lesion size (LDLr^-/-; male LDLr^-/-, Western-type diet, 30 mg/kg/d orally for 35 days, mean ± SD, N=8/group): 19955±7278
Body wt(gm) ([1]; 129E^-/-, F, 15 wks, 30 mg/kg orally 35 days, chow diet): 26±2 gm
Body wt(gm) ([1]; 129E^-/-, F, 15 wks, 50 mg/kg orally 35 days, chow diet): 25±2 gm
Body wt(gm) ([1]; 129E^-/-, F, 15 wks, 100 mg/kg orally 35 days, chow diet): 25±1 gm
Body wt(gm) ([1]; 129E^-/-, F, 20 wks, 30 mg/kg orally 35 days, chow diet): 29±1 gm
Body wt(gm) ([1]; 129E^-/-, F, 24 wks, 100 mg/kg orally 35 days, chow diet): 31±1 gm
Body wt(gm) ([1]; C57E^-/-, F, 22 wks, 100 mg/kg orally 35 days, chow diet): 30 gm
Body wt(gm) ([1]; C57E^-/-, M, 16 wks, 100 mg/kg orally 35 days, chow diet): 29±1 gm
Body wt(gm) ([1]; LDLr^-/-, M, 18 wks, 30 mg/kg orally 35 days, Western diet): 31±2 gm
Body wt(gm) ([1]; MCP-1 ^-/- X ApoE^-/-, M, 15 wks, 30 mg/kg orally 35 days): 29±1 gm
Body wt(gm) ([1]; MCP-1 ^-/- X ApoE^-/-, M, 15 wks, 100 mg/kg orally 35 days): 29±1 gm
Body wt(gm) ([1]; MCP-1 ^-/- X ApoE^-/-, M, 30 wks, 30 mg/kg orally 35 days): 31±1 gm
Body wt(gm) ([1]; MCP-1 ^-/- X ApoE^-/-, M, 30 wks, 100 mg/kg orally 35 days): 26±1 gm
